# Laboratory results taken from ChEMBL document CHEMBL5338718, “Design and exploration of gut-restricted bifunctional molecule with TGR5 agonistic and DPP4 inhibitory effects for treating ulcerative colitis” (Eur J Med Chem, 2022).
# Calls of active or inactive are those of the source. No cut-off for these calls is given here.
# Tests used:
# [1] = target: T1, G-protein coupled bile acid receptor 1 (Homo sapiens, UniProt Q8TDU6); experiment: Agonist activity at human TGR5 expressed in human HEK293 cells co-expressing CRE-driven luciferase reporter gene assessed as luciferase activity incubated for 5.5 hrs by Steady-Glo based luciferase assay; type: functional, cell-based
# T1 sequence (Q8TDU6 whole entry): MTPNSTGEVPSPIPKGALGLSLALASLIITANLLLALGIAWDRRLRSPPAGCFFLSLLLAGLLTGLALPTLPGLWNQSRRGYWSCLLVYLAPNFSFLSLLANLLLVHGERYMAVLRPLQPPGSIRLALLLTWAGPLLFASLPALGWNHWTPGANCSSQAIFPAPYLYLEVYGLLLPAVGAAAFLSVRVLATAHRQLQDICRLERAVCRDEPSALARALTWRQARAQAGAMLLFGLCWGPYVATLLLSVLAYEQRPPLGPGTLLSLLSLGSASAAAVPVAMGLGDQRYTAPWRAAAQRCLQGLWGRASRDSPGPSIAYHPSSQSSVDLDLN
# [2] = target: T2, G-protein coupled bile acid receptor 1 (Mus musculus, UniProt Q80SS6); experiment: Agonist activity at mouse TGR5 expressed in human HEK293 cells co-expressing CRE-driven luciferase reporter gene assessed as luciferase activity incubated for 5.5 hrs by Steady-Glo based luciferase assay; type: functional, cell-based
# T2 sequence (Q80SS6 whole entry): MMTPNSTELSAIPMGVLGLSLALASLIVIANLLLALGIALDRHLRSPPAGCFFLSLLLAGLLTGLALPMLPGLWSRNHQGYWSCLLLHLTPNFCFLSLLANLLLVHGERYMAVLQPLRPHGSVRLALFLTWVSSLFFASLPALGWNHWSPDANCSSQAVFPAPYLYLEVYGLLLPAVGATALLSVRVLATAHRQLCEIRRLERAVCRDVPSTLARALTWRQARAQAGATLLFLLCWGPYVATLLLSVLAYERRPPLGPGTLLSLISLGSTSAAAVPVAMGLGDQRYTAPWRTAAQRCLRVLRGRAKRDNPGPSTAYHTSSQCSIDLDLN
# [3] = target: Dipeptidyl peptidase 4 (Mus musculus, UniProt P28843); experiment: Inhibition of mouse serum DPP4 assessed as cleavage of substrate by measuring AMC release using Gly-Pro-AMC as substrate by fluorescence based microplate reader assay; type: cell-free
# [4] = Water solubility at pH 6.8; type: physicochemical
# [5] = system: Mus musculus; experiment: In vivo inhibition of DDP4 in ICR mouse assessed as decrease in enzyme activity in serum at 200 mg/kg,po and measured at 2 hrs using Gly-Pro-AMC as substrate by fluorescence based microplate reader assay; type: functional, organism-based
# [6] = system: Mus musculus; experiment: In vivo inhibition of DDP4 in ICR mouse assessed as decrease in enzyme activity in ileum at 200 mg/kg,po and measured after 8 hrs using Gly-Pro-AMC as substrate by fluorescence based microplate reader assay; type: functional, organism-based
# [7] = system: Mus musculus; experiment: In vivo inhibition of DDP4 in ICR mouse assessed as decrease in enzyme activity in serum at 200 mg/kg,po and measured at 4 hrs using Gly-Pro-AMC as substrate by fluorescence based microplate reader assay; type: functional, organism-based
# [8] = system: Mus musculus; experiment: In vivo inhibition of DDP4 in ICR mouse assessed as decrease in enzyme activity in serum at 200 mg/kg,po and measured after 8 hrs using Gly-Pro-AMC as substrate by fluorescence based microplate reader assay; type: functional, organism-based
# [9] = system: Mus musculus; experiment: In vivo inhibition of DDP4 in ICR mouse assessed as decrease in enzyme activity in ileum at 30 mg/kg,po and measured after 8 hrs using Gly-Pro-AMC as substrate by fluorescence based microplate reader assay; type: functional, organism-based
# [10] = system: Mus musculus; experiment: Induction of gut restriction in overnight fasted ICR mouse assessed as effect on gallbladder-filling by measuring gallbladder volume at 50 mg/kg, po and measured after 4 hrs by Vernier caliper analysis; type: functional, organism-based
# [11] = system: Mus musculus; experiment: Induction of gut restriction in overnight fasted ICR mouse assessed as effect on gallbladder-filling by measuring bile weight at 50 mg/kg, po and measured after 4 hrs by Vernier caliper analysis; type: functional, organism-based
# Chain of Dipeptidyl peptidase 4 (P28843 whole entry): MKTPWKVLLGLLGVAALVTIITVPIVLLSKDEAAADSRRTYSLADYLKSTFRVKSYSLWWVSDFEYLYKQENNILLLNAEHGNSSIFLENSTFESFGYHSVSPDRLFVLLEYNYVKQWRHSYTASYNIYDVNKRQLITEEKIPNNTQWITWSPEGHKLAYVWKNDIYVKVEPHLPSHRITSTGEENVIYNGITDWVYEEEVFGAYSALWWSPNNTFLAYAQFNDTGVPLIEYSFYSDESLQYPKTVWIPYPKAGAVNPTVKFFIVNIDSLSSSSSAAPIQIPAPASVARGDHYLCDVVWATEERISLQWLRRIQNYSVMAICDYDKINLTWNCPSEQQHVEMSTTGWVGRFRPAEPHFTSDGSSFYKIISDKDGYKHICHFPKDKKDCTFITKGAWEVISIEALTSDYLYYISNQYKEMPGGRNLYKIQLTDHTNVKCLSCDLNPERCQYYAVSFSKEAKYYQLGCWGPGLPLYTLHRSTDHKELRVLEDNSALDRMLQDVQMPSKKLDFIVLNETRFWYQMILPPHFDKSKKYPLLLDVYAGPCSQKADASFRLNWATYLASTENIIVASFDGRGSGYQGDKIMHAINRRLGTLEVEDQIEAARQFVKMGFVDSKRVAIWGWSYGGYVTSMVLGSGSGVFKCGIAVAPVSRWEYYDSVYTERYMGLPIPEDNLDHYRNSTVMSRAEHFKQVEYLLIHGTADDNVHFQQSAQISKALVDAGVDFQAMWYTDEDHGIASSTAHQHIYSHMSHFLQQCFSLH
Structure (SMILES),EC50 [1] [nM],EC50 [2] [nM],IC50 [3] [nM],solubility [4] [µM],other results
N[C@@H](CC(=O)N1CCCN(CC(=O)NCCOCCOCCOCCOCCOCCNC(=O)CCc2cc(Cl)c(Oc3ccsc3C(=O)N3CCN(C4CC4)c4ccccc43)cc2Cl)C(=O)C1Cc1ccccc1)Cc1cc(F)c(F)cc1F (mixture of isomers),4.9,2.7,124,10,
O=C(O)CCc1cc(Cl)c(Oc2ccsc2C(=O)N2CCN(C3CC3)c3ccccc32)cc1Cl,11.2,10.5,> 10000,,
CC1C(=O)N(CC(=O)NCCOCCOCCOCCNC(=O)CCc2cc(Cl)c(Oc3ccsc3C(=O)N3CCN(C4CC4)c4ccccc43)cc2Cl)CCCN1C(=O)C[C@H](N)Cc1cc(F)c(F)cc1F (mixture of isomers),4.5,4.3,119,,
N[C@@H](CC(=O)N1CCCN(CC(=O)NCCOCCOCCOCCNC(=O)CCc2cc(Cl)c(Oc3ccsc3C(=O)N3CCN(C4CC4)c4ccccc43)cc2Cl)C(=O)C1Cc1ccccc1)Cc1cc(F)c(F)cc1F (mixture of isomers),6.1,3.7,113,10,
N[C@@H](CC(=O)N1CCn2c(nnc2C(F)(F)F)C1)Cc1cc(F)c(F)cc1F,,,,,inhibition [5]: Active; inhibition [6]: Active; inhibition [7]: Active; inhibition [8]: Active; inhibition [9]: Active
CC1C(=O)N(CC(=O)NCCN(C)C(=O)CCc2cc(Cl)c(Oc3ccsc3C(=O)N3CCN(C4CC4)c4ccccc43)cc2Cl)CCCN1C(=O)C[C@H](N)Cc1cc(F)c(F)cc1F (mixture of isomers),14.9,6,224,,
N[C@@H](CC(=O)N1CCCN(CC(=O)NCCOCCOCCOCCOCCOCCOCCNC(=O)CCc2cc(Cl)c(Oc3ccsc3C(=O)N3CCN(C4CC4)c4ccccc43)cc2Cl)C(=O)C1Cc1ccccc1)Cc1cc(F)c(F)cc1F (mixture of isomers),3.7,2.3,112,20,
C.N[C@@H](CC(=O)N1CCCN(CC(=O)NCCOCCOCCOCCOCCOCCOCCOCCOCCNC(=O)CCc2cc(Cl)c(Oc3ccsc3C(=O)N3CCN(C4CC4)c4ccccc43)cc2Cl)C(=O)C1Cc1ccccc1)Cc1cc(F)c(F)cc1F (mixture of isomers),3.8,2.3,104,,
O=C(c1cnccc1Oc1cc(Cl)ccc1Cl)N1CCN(C2CC2)c2ccccc21,,,,,Activity [10]: inactive; Activity [11]: inactive

# Further lines, with some results ahead:
EC50 [1] [nM],EC50 [2] [nM],IC50 [3] [nM],solubility [4] [µM],Structure (SMILES),other results
3.6,2.1,103,20,N[C@@H](CC(=O)N1CCCN(CC(=O)NCCOCCOCCOCCOCCOCCOCCOCCNC(=O)CCc2cc(Cl)c(Oc3ccsc3C(=O)N3CCN(C4CC4)c4ccccc43)cc2Cl)C(=O)C1Cc1ccccc1)Cc1cc(F)c(F)cc1F (mixture of isomers),
3.2,2.4,64.8,50,CC1C(=O)N(CC(=O)NCCOCCOCCOCCOCCOCCOCCOCCOCCNC(=O)CCc2cc(Cl)c(Oc3ccsc3C(=O)N3CCN(C4CC4)c4ccccc43)cc2Cl)CCCN1C(=O)C[C@H](N)Cc1cc(F)c(F)cc1F (mixture of isomers),
> 1000,> 1000,10.4,,CC1C(=O)NCCCN1C(=O)C[C@H](N)Cc1cc(F)c(F)cc1F (mixture of isomers),
2.5,2.3,57.5,50,CC1C(=O)N(CC(=O)NCCOCCOCCOCCOCCOCCNC(=O)CCc2cc(Cl)c(Oc3ccsc3C(=O)N3CCN(C4CC4)c4ccccc43)cc2Cl)CCCN1C(=O)C[C@H](N)Cc1cc(F)c(F)cc1F (mixture of isomers),
,,0.8,,N[C@@H](CC(=O)N1CCCNC(=O)C1Cc1ccccc1)Cc1cc(F)c(F)cc1F (mixture of isomers),
2.8,2.3,60.1,50,CC1C(=O)N(CC(=O)NCCOCCOCCOCCOCCOCCOCCNC(=O)CCc2cc(Cl)c(Oc3ccsc3C(=O)N3CCN(C4CC4)c4ccccc43)cc2Cl)CCCN1C(=O)C[C@H](N)Cc1cc(F)c(F)cc1F.F (mixture of isomers),
2.8,2.1,54.8,50,CC1C(=O)N(CC(=O)NCCOCCOCCOCCOCCOCCOCCOCCNC(=O)CCc2cc(Cl)c(Oc3ccsc3C(=O)N3CCN(C4CC4)c4ccccc43)cc2Cl)CCCN1C(=O)C[C@H](N)Cc1cc(F)c(F)cc1F (mixture of isomers),
